Measured values as given in patent US9364426B2, “Method of making coated microstructures” (Georgia Tech Research Corporation, priority 2005, dated 2016).
Each block holds one molecule with its values, some of them ahead of it.

Key:
[1] = In vitro dissolution of microneedle coating in pig cadaver skin; format: in vitro ADME; settings: single microneedles n=3
Excerpt: To assess the in vitro dissolution time, single microneedles (n=3) coated with vitamin B, calcein, or sulforhodamine, made as in Example 1, were inserted into pig cadaver skin for 10 s or 20 s. Upon removal, these microneedles were imaged by fluorescence microscopy to detect residual coating.

[2] = Delivery from individual coated microneedles in vitro into pig cadaver skin; format: in vitro ADME; settings: 20 s insertion into pig cadaver skin
Description: After removing the microneedles, fluorescence micrographs of coated microneedles and histological skin sections were collected using an Olympus IX70 fluorescent microscope with a CCD camera (RT Slider, Diagnostic Instruments). Brightfield micrographs were collected using an Olympus SZX12 stereomicroscope with a CCD camera (Leica DC 300, Leica Microsystems, Bannockburn, Ill., USA). Histological examination of pig cadaver skin was conducted on frozen sections. Pig cadaver skin was pierced with microneedles for 20 s, frozen in OCT compound (Tissue-Tek, 4583, Sakura Finetek, Torrance, Calif., USA), and cut into 10 μm-thick sections using a cryostat (Cryo-Star HM 560MV, Microm, Waldorf, Germany).

[3] = cited from earlier work
[4] = coated onto microneedles; six months storage under nitrogen at room temperature; cited from earlier work
guinea pigs = settings: model antigen delivered from coated microneedles; cited from earlier work
[5] = 10 s insertion into pig cadaver skin
[6] = 20 s insertion into pig cadaver skin

dissolution of microneedle coating (residual coating by fluorescence microscopy) [1, 5]: majority of the coating was dissolved
dissolution of microneedle coating (residual coating by fluorescence microscopy) [1, 6]: completely dissolved
residue on the skin after insertion [2]: No residue was observed
Molecule: O=C(O)CN(CC(=O)O)Cc1cc2c(cc1O)Oc1cc(O)c(CN(CC(=O)O)CC(=O)O)cc1C21OC(=O)c2ccccc21 [calcein]
distribution in skin, histology sections [2]: distribution of calcein along the periphery of the insertion point

Molecule: COc1cc(/C=C/C(=O)CC(=O)/C=C/c2ccc(O)c(OC)c2)ccc1O [curcumin]
solubility in water [3]: negligible

Molecule: NC(=O)CC[C@@H]1NC(=O)[C@H](Cc2ccccc2)NC(=O)[C@H](Cc2ccc(O)cc2)NC(=O)CCSSC[C@@H](C(=O)N2CCC[C@H]2C(=O)N[C@H](CCCN=C(N)N)C(=O)NCC(N)=O)NC(=O)[C@H](CC(N)=O)NC1=O [desmopressin]
integrity after storage [4]: 98%

dissolution of microneedle coating (residual coating by fluorescence microscopy) [1, 5]: majority of the coating was dissolved
dissolution of microneedle coating (residual coating by fluorescence microscopy) [1, 6]: completely dissolved
Molecule: sulforhodamine

B1: ovalbumin (protein, UniProt P01012 2-386, looked up)
Ovalbumin: GSIGAASMEFCFDVFKELKVHHANENIFYCPIAIMSALAMVYLGAKDSTRTQINKVVRFDKLPGFGDSIEAQCGTSVNVHSSLRDILNQITKPNDVYSFSLASRLYAEERYPILPEYLQCVKELYRGGLEPINFQTAADQARELINSWVESQTNGIIRNVLQPSSVDSQTAMVLVNAIVFKGLWEKAFKDEDTQAMPFRVTEQESKPVQMMYQIGLFRVASMASEKMKILELPFASGTMSMLVLLPDEVSGLEQLESIINFEKLTEWTSSNVMEERKIKVYLPRMKMEEKYNLTSVLMAMGITDVFSSSANLSGISSAESLKISQAVHAAHAEINEAGREVVGSAEAGVDAASVSEEFRADHPFLFCIKHIATNAVLFFGRCVSP
notes: model ovalbumin antigen delivered from coated microneedles
immune response (guinea pigs): strong immune response
